From ChEMBL document CHEMBL4732085, “Di-aryl guanidinium derivatives: Towards improved α2-Adrenergic affinity and antagonist activity” (Eur J Med Chem, 2021)

Assays:
[1] = molecular target: T1, Adrenergic receptor alpha-2 (Homo sapiens, UniProt P08913+P18825+P18089); assay: Displacement of [3H]-RX821002 from adrenergic alpha 2 receptor in human brain membrane by liquid scintillation spectroscopy; assay type: cell membranes
T1 sequence (P08913 whole entry): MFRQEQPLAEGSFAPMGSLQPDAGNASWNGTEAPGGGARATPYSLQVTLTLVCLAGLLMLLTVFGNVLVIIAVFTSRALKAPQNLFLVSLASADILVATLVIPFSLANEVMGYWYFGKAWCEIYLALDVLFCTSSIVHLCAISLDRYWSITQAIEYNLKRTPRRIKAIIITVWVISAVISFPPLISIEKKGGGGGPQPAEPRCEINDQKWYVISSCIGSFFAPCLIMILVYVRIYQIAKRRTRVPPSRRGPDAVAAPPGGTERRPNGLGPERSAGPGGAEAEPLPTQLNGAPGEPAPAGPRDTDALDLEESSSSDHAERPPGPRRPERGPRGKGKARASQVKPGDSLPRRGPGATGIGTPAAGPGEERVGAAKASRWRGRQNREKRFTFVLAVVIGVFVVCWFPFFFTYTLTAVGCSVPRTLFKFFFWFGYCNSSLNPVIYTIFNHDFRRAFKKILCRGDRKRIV
T1 sequence (P18825 whole entry): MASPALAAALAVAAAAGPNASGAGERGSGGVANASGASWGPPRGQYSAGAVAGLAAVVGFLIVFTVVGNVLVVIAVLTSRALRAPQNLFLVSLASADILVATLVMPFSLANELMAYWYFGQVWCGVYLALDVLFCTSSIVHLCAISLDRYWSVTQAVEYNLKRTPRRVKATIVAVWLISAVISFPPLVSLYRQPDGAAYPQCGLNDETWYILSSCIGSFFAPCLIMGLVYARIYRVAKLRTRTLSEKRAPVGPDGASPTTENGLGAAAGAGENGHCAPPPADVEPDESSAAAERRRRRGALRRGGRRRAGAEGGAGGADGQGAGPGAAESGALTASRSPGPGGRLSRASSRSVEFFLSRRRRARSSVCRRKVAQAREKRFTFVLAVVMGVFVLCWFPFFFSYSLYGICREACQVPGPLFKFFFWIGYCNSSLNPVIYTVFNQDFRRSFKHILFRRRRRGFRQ
T1 sequence (P18089 whole entry): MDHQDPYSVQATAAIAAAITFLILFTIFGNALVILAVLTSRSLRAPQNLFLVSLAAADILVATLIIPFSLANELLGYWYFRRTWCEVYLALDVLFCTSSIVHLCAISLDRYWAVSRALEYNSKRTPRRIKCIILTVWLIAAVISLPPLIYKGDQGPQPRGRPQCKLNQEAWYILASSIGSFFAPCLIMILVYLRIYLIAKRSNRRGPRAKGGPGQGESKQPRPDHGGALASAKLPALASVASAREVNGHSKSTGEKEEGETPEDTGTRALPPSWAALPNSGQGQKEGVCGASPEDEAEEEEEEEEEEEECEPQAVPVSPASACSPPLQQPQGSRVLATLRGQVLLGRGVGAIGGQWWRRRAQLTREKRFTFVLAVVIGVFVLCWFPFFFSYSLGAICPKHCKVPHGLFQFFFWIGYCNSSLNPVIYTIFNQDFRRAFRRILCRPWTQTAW

[2] = molecular target: T1, Adrenergic receptor alpha-2; assay: Agonist activity at adrenergic alpha 2 receptor in human brain membrane assessed as stimulation of [35S]GTPgammaS binding by liquid scintillation spectroscopy; assay type: functional, cell membranes
[3] = molecular target: T1, Adrenergic receptor alpha-2; assay: Antagonist activity at adrenergic alpha 2 receptor in human brain membrane assessed as inhibition of UK14304-induced stimulation of [35S]GTPgammaS binding by liquid scintillation spectroscopy (reference value: 1.77 +/- […]); assay type: functional, cell membranes
[4] = molecular target: T2, Adrenergic receptor alpha-2 (Homo sapiens) (UniProt P08913+P18825+P18089); assay: Antagonist activity at adrenergic alpha 2 receptor in human brain membrane assessed as inhibition of UK14304-induced stimulation of [35S]GTPgammaS binding at 10 uM by liquid scintillation spectroscopy (reference value: 153 +/- 4%); assay type: functional, cell membranes; conditions: filed as antagonist
[5] = molecular target: T2, Adrenergic receptor alpha-2 (Homo sapiens); assay: Agonist activity at adrenergic alpha 2 receptor in human brain membrane assessed as stimulation of [35S]GTPgammaS binding at 10 uM in presence of adrenergic alpha 2 receptor antagonist RX821002 by liquid scintillation spectroscopy; assay type: functional, cell membranes; conditions: filed as agonist
[6] = molecular target: T1, Adrenergic receptor alpha-2; assay: Agonist activity at adrenergic alpha 2 receptor in human brain membrane assessed as stimulation of [35S]GTPgammaS binding in presence of adrenergic alpha 2 receptor antagonist RX821002 by liquid scintillation spectroscopy; assay type: functional, cell membranes
[7] = molecular target: T2, Adrenergic receptor alpha-2 (Homo sapiens); assay: Agonist activity at adrenergic alpha 2 receptor in human brain membrane assessed as stimulation of [35S]GTPgammaS binding at 10 uM by liquid scintillation spectroscopy relative to control; assay type: functional, cell membranes; conditions: filed as agonist

Row | Compound | Ki [1] | EC50 [3] | Emax [4] | other results
1 | N=C(N)Nc1ccc2c(c1)CCCC2 | 0.0776 µM | – | – | –
2 | N=C(N)NC1C=C2CCCCC2=CN1 (stereo unspecified) | 0.1659 µM | – | – | –
3 | Cl.Cl.N=C(NCc1ccco1)Nc1ccc(Cc2ccc(NC3=NCCN3)cc2)cc1 | 0.00177 µM | 11.6 µM | 155% | EC50 [2]: 534 µM; Emax [5]: 130%; EC50 [6]: 2356 µM; Emax [7]: 168%
4 | COC1(C2=NCCN2)COc2ccccc2O1 (stereo unspecified) | – | 87.2 µM | 98% | –
5 | Cl.Cl.N=C(N)Nc1ccc(Cc2ccc(NC3=NCCN3)cc2)cn1 | 0.0868 µM | 39.9 µM | 140% | –
6 | Cl.Cl.N=C(NCc1ccco1)Nc1ccc(Cc2ccc(NC3=NCCN3)nc2)cc1 | 0.433 µM | – | – | –
7 | CCCNC(=N)Nc1ccc(Cc2ccc(NC3=NCCN3)cc2)cn1.Cl.Cl | 0.0676 µM | 30.8 µM | 122% | –
8 | CN(C)c1ccc(/N=C(/N)NCc2ccco2)cc1 | 0.2318 µM | – | – | –
9 | CCCNC(=N)Nc1ccc(Cc2ccc(NC3=NCCN3)nc2)cn1.Cl.Cl | 0.0899 µM | 10.2 µM | 127% | –
10 | Cl.Cl.N=C(N)Nc1ccc(Cc2ccc(NC3=NCCN3)nc2)cn1 | 0.138 µM | – | – | –
11 | Cl.Cl.N=C(N)Nc1ccc(Cc2ccc(NC3=NCCN3)nc2)cc1 | 0.674 µM | – | – | –
12 | Cl.Cl.N=C(NCc1ccco1)Nc1ccc(CCc2ccc(NC3=NCCN3)cc2)cc1 | 0.418 µM | – | – | –
13 | c1cc2c(cc1NC1=NCCN1)CCCC2 | 0.0468 µM | – | – | –
14 | CCCNC(=N)Nc1ccc(CCc2ccc(NC3=NCCN3)cc2)cc1.Cl.Cl | 1.745 µM | – | – | –
15 | CCCNC(=N)Nc1ccc(Cc2ccc(NC3=NCCN3)nc2)cc1.Cl.Cl | 0.12 µM | 4.14 µM | 139% | –
16 | Cl.Cl.N=C(N)Nc1ccc(CCc2ccc(N=C3NCCN3)cc2)cc1 | 0.175 µM | – | – | –
17 | Cl.Cl.N=C(NCc1ccco1)Nc1ccc(Cc2ccc(NC(=N)NCc3ccco3)cc2)cc1 | 0.355 µM | – | – | –
18 | Cl.Cl.N=C(NCc1ccco1)Nc1ccc(Cc2ccc(NC3=NCCN3)cc2)cn1 | 0.0339 µM | 52.3 µM | 96% | EC50 [2]: 194 µM; Emax [5]: 154%; EC50 [6]: 252 µM; Emax [7]: 149%
19 | CCCNC(=N)Nc1ccc(Cc2ccc(NC(=N)NCCC)cc2)cc1.Cl.Cl | 0.742 µM | – | – | –
20 | Cl.Cl.N=C(NCCO)Nc1ccc(Cc2ccc(NC(=N)NCCO)cc2)cc1 | 2.485 µM | – | – | –
21 | Cl.Cl.N=C(N)Nc1ccc(Cc2ccc(N=C3NCCN3)cc2)cc1 | 0.0123 µM | 20.2 µM | 110% | EC50 [2]: 18 µM; Emax [5]: 122%; EC50 [6]: 64020 µM; Emax [7]: 126%
22 | CCCNC(=N)Nc1ccc(Cc2ccc(NC3=NCCN3)cc2)cc1.Cl.Cl | 0.00082 µM | 30 µM | 171% | EC50 [2]: 46 µM; Emax [5]: 110%; EC50 [6]: 487 µM; Emax [7]: 139%
23 | Cl.Cl.N=C(NCc1ccco1)Nc1ccc(Cc2ccc(NC3=NCCN3)nc2)cn1 | 0.263 µM | – | – | –
